ChEMBL document CHEMBL1201862, “PubChem BioAssay data set” (2004)
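Tested at 5 concentrations; 48 h exposure; 96-well plates; endpoints linearly interpolated, else capped at highest concentration. At the GI50, growth is halved.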 Activity calls are given as the source filed them. No stated cut-off is given here; in the data, active = GI50 up to about 1.1 µM and inactive = higher.

What was measured:
Experiment in all cases: NCI anticancer screen, dose series, 48 h
OVCAR-4 = system: OVCAR-4
HCT-15 = system: HCT-15
RPMI-8226 = system: RPMI-8226
MOLT-4 = system: MOLT-4
K562 = system: K562
OVCAR-5 = system: OVCAR-5
HCC 2998 = system: HCC 2998
SF-268 = system: SF-268
SK-MEL-2 = system: SK-MEL-2
SW-620 = system: SW-620
COLO 205 = system: COLO 205
IGROV-1 = system: IGROV-1
TK-10 = system: TK-10
HOP-62 = system: HOP-62
SK-MEL-5 = system: SK-MEL-5
T47D = system: T47D
MDA-MB-231 = system: MDA-MB-231
NCI/ADR-RES = system: NCI/ADR-RES
PC-3 = system: PC-3

Structure (SMILES) | GI50 (OVCAR-4) | GI50 (HCT-15) [µM] | GI50 (RPMI-8226) | GI50 (MOLT-4) | GI50 (K562) | GI50 (OVCAR-5) | GI50 (HCC 2998) | GI50 (SF-268) | GI50 (SK-MEL-2) | GI50 (SW-620) | GI50 (COLO 205) | GI50 (IGROV-1) | GI50 (TK-10) | GI50 (HOP-62) | GI50 (SK-MEL-5) | GI50 (T47D) | GI50 (MDA-MB-231) | GI50 (NCI/ADR-RES) | GI50 (PC-3)
Cc1ccc(-n2c(=S)[nH]c3ccc(Br)cc3c2=O)cc1 | > 100 µM (inactive) | > 100 | > 100 µM (inactive) | > 100 µM (inactive) | > 100 µM (inactive) | > 100 µM (inactive) | > 100 µM (inactive) | > 100 µM (inactive) | > 100 µM (inactive) | > 100 µM (inactive) | > 100 µM (inactive) | > 100 µM (inactive) | > 100 µM (inactive) | > 100 µM (inactive) | – | – | – | – | –
C=CC[P@]1(=O)O[C@H](c2ccccc2)C(C)N1C(C)C (stereo not given in full) | – | > 100 | > 100 µM (inactive) | > 100 µM (inactive) | > 100 µM (inactive) | > 100 µM (inactive) | > 100 µM (inactive) | > 100 µM (inactive) | > 100 µM (inactive) | > 100 µM (inactive) | > 100 µM (inactive) | > 100 µM (inactive) | > 100 µM (inactive) | > 100 µM (inactive) | > 100 µM (inactive) | – | – | – | –
O=C1C2c3[nH]c4ccccc4c3C3CCC(c4ccccc4)CC3C2C(=O)N1c1ccccc1 (stereo not given) | 58.5 µM (inactive) | > 100 | > 100 µM (inactive) | 83.8 µM (inactive) | 55.1 µM (inactive) | > 100 µM (inactive) | > 100 µM (inactive) | > 100 µM (inactive) | – | > 100 µM (inactive) | > 100 µM (inactive) | > 100 µM (inactive) | > 100 µM (inactive) | – | > 100 µM (inactive) | – | – | – | –
C=C1CC(C/C=C(\C)CC2CC(=C)C(=O)O2)OC1=O (stereo not given) | > 100 µM (inactive) | > 100 | – | > 100 µM (inactive) | > 100 µM (inactive) | > 100 µM (inactive) | > 100 µM (inactive) | > 100 µM (inactive) | > 100 µM (inactive) | > 100 µM (inactive) | > 100 µM (inactive) | > 100 µM (inactive) | > 100 µM (inactive) | > 100 µM (inactive) | > 100 µM (inactive) | – | – | – | –
CC(C)=NNC(=S)NC12CC3CC(CC(C3)C1)C2 | > 100 µM (inactive) | > 100 | > 100 µM (inactive) | > 100 µM (inactive) | > 100 µM (inactive) | > 100 µM (inactive) | – | > 100 µM (inactive) | > 100 µM (inactive) | > 100 µM (inactive) | > 100 µM (inactive) | > 100 µM (inactive) | > 100 µM (inactive) | > 100 µM (inactive) | > 100 µM (inactive) | – | – | – | –
CCN1CCC(O)(/C=C/c2cccc(C)c2)C(C(=O)/C=C/c2cccc(C)c2)C1 (stereo not given) | 4.31 µM (inactive) | 2.25 | 1.77 µM (inactive) | 2.43 µM (inactive) | 2.98 µM (inactive) | 2.64 µM (inactive) | 1.6 µM (inactive) | 1.74 µM (inactive) | 2.31 µM (inactive) | 2.29 µM (inactive) | 1.95 µM (inactive) | 1.94 µM (inactive) | 1.71 µM (inactive) | – | 1.88 µM (inactive) | 2.7 µM (inactive) | 3.35 µM (inactive) | 2.19 µM (inactive) | 13.3 µM (inactive)
NS(=O)(=O)c1ccc(NC(=O)CC(=O)Nc2ccc(S(N)(=O)=O)cc2)cc1 | > 100 µM (inactive) | > 100 | > 100 µM (inactive) | > 100 µM (inactive) | > 100 µM (inactive) | > 100 µM (inactive) | > 100 µM (inactive) | > 100 µM (inactive) | > 100 µM (inactive) | > 100 µM (inactive) | > 100 µM (inactive) | > 100 µM (inactive) | > 100 µM (inactive) | > 100 µM (inactive) | > 100 µM (inactive) | – | – | – | –
O=C(CCc1nnc(S)[nH]1)Nc1ccc(Cl)c(Cl)c1 | 58.2 µM (inactive) | 6.25 | > 100 µM (inactive) | 45.8 µM (inactive) | 9.1 µM (inactive) | 33.8 µM (inactive) | – | 42.8 µM (inactive) | 6.18 µM (inactive) | 41.3 µM (inactive) | > 100 µM (inactive) | 26.5 µM (inactive) | 79.4 µM (inactive) | 20 µM (inactive) | 14.1 µM (inactive) | – | – | – | –
CCOC(OC1=C(C#N)CCC1)C(C)[Se]c1ccccc1 (stereo not given) | 14.9 µM (inactive) | 15.9 | 23.3 µM (inactive) | 18 µM (inactive) | 55.6 µM (inactive) | 39.8 µM (inactive) | 46.7 µM (inactive) | 19.8 µM (inactive) | 16.8 µM (inactive) | – | 27.5 µM (inactive) | 25.8 µM (inactive) | > 100 µM (inactive) | > 100 µM (inactive) | 15.8 µM (inactive) | – | – | – | –
CC(C)(C)C[P+](C)(C)c1ccccc1 | > 100 µM (inactive) | > 100 | > 100 µM (inactive) | > 100 µM (inactive) | 34.4 µM (inactive) | 76 µM (inactive) | > 100 µM (inactive) | > 100 µM (inactive) | > 100 µM (inactive) | > 100 µM (inactive) | > 100 µM (inactive) | > 100 µM (inactive) | > 100 µM (inactive) | > 100 µM (inactive) | > 100 µM (inactive) | – | – | – | –
